Data as given in paper PMC4770093, “The role of kinetic context in apparent biased agonism at GPCRs” (Nature Communications, 2016).
“And” between values parts separate entries of the source, which are not always exact repeats. Equal values may be shown once.

Key:
Format in all cases: cell-based
Design in all cases: expressed in transfected cells
D2LR [1] = target: T1, D2LR (Homo sapiens, UniProt P14416); experiment: ERK1/2 phosphorylation assay (Alphascreen SureFire); conditions: for alpahscreen assay to detect pERK1/2, counts: agonist 10 μM (cariprazine 1 μM), single experiments n=1 to n=4
Experimental: ERK1/2 phosphorylation was measured using the Alphascreen SureFire ERK kit (PerkinElmer, Waltham, USA). Cells were seeded into 96-well plates at a density of 50,000 cells per well. After 5–7 h, cells were washed with PBS and incubated in serum-free DMEM overnight before assaying. Dose–response experiments were performed for each ligand at 37 °C in the presence of 0.1% ascorbic acid. […] The plate was shaken for 5 min at room temperature (RT) before transferring 5 μl of the lysates to a white 384-well Proxiplate (PerkinElmer, Waltham, USA). […] Plates were read using a Fusion-TM plate reader (PerkinElmer, Waltham, USA).

D2LR [2] = target: T1, D2LR; experiment: GαoB G protein activation (BRET); conditions: for Emax Gao / Emax: relative to the maximal response of ropinirole; for Log(τ/KA) GαoB activation / ΔLog(τ/KA) GαoB activation: 5 minute timepoint; for Log(τ/KA) GαoB activation: Flp-In-CHO-D2LR; for ΔLog(τ/KA) GαoB activation: dopamine as reference agonist;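 for all read-outs here: Flp-In-CHO cells stably expressing D2LR, transiently transfected, agonist-stimulated in HBSS at 37 °C, net BRET read after coelenterazine, vehicle control subtracted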
Experimental: G protein activation. Flp-In-CHO cells stably expressing the D2LR were seeded at a density of 2,000,000 cells per 10-cm dish and were transfected the following day using polyethylenimine as the transfection reagent. […] Twenty-four hours after transfection, the cells were plated into 96-well CulturPlates (PerkinElmer) and grown overnight. The cells were equilibrated in Hank's balanced salt solution at 37 °C before starting the experiment. The cells were stimulated with the agonists for the indicated timeframes when the BRET readings were captured. Coelenterazine (Promega) was added at a final concentration of 5 μM at least 3 min before measurement. […] Net BRET was determined by subtraction of the vehicle control from the agonist-induced response.

D2LR [3] = target: T1, D2LR; experiment: xCELLigence cellular impedance (CI) assay; conditions: for Emax CI / Emax: relative to the maximal response of ropinirole; for Log(τ/KA) Cellular impedance / ΔLog(τ/KA) Cellular impedance: 5 minute timepoint; for Log(τ/KA) Cellular impedance: Flp-In-CHO-D2LR; for ΔLog(τ/KA) Cellular impedance: dopamine as reference agonist
Experimental: Changes in CI on ligand stimulation were measured using the xCELLigence system (Roche Applied Science). The baseline cell index of each well of a 96-well E-plate was measured in the presence of growth medium before cell seeding. Cells were seeded at a density of 20,000 cells per well and grown for 16–20 h followed by 4 h serum starvation. Cells were treated with the ligands and the cell index values were obtained immediately after ligand stimulation every 15 s for a total time of 90 min. The retrieved cell index values were then normalized by dividing the cell index at the time of ligand addition followed by subtraction of the vehicle control at each time point.

D2LR [4] = target: T1, D2LR; experiment: Quantification of biased agonism between pathways (operational model, LogBias)
Description: where Top and Bottom represent the maximal and minimal asymptote of the dose–response curve, [A] is the molar concentration of agonist and EC50 is the molar concentration of agonist required to give a response half way between bottom and top. Dose–response data were fitted to the following form of the operational model of agonism[12] to allow the quantification of biased agonism
where Em is the maximal possible response of the system, Basal is the basal level of response, KA represents the equilibrium dissociation constant of the agonist (A) and τ is an index of the signalling efficacy of the agonist that is defined as RT/KE, where RT is the total number of receptors and KE is the coupling efficiency of each agonist-occupied receptor, and n is the slope of the transducer function that links occupancy to response. The analysis assumes that the transduction machinery used for a given cellular pathway are the same for all agonists, such that the Em and transducer slope (n) are shared between agonists. Data for all compounds for each pathway were fit globally, to determine values of KA and τ. Biased agonism was quantified as previously described. […] The relative bias can then be calculated for each agonist at the two different signalling pathways by subtracting the Δlog(τ/KA) of one pathway from the other to give a ΔΔlog(τ/KA) value, which is a measure of bias. […] All affinity (pKi or pKA), potency (pEC50) and transduction ratio (log(τ/KA)) parameters were estimated as logarithms. When fold changes in bias are described, this was calculated by converting values of ΔΔlog(τ/KA) to the corresponding antilog value. […] Thus, as the application of t-tests and analyses of variance assume Gaussian distribution, estimating the parameters as logarithms allows valid statistical comparison. All results are expressed as the mean±s.e.m. As such, we performed a Brown–Forsythe test (Graphpad prism 6) to assure ourselves of equal variance when such parameters are compared.

[5] = 5 minute timepoint, dopamine as reference agonist

T1 sequence (P14416 whole entry, the tested form may be a part): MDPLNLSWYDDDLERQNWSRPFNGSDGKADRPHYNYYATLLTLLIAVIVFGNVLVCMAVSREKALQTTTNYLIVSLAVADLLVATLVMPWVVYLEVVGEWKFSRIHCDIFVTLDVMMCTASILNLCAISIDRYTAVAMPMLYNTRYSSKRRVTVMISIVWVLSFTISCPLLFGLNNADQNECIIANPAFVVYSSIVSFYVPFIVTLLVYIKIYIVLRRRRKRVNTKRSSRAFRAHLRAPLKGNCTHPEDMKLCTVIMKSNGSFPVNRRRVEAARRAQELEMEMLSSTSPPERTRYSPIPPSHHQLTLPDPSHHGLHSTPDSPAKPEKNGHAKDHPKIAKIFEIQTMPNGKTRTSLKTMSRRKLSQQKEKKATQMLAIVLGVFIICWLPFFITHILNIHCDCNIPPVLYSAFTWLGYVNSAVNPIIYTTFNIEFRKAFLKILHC

With `CCCN1CCC[C@@H](c2cccc(O)c2)C1` [S-3PPP, (S)-(-)-3-(3-hydroxyphenyl)-N-propylpiperidine] the “alpahscreen assay to detect pERK1/2, counts” value (“alpahscreen assay” for short) (D2LR [1]; time 7.5 mins) was 7.838 counts and 8.667 counts and 10.676 counts and 8.644 counts, the “alpahscreen assay” value (D2LR [1]; time 10 mins) was 7.633 counts and 9.485 counts and 6.489 counts and 6.6386 counts and the “alpahscreen assay” value (D2LR [1]; time 15 mins) was 3.509 counts and 3.085 counts and 2.82 counts and 2.443 counts. For the same compound, the “alpahscreen assay” value (D2LR [1]; time 20 mins) was 2.3 counts and 2.162 counts and 3.001 counts and 1.823 counts, the “alpahscreen assay” value (D2LR [1]; time 30 mins) was 1.331 counts and 1.287 counts and 2.069 counts and 1.34 counts and the “Emax Gao” value (D2LR [2]; 2 min) was 64 ± 5.6. For the same compound, the “Emax Gao” value (D2LR [2]; 5 min) was 68 ± 3.0, the “Log(τ/KA) GαoB activation” value (D2LR [2]) was 6.40 ± 0.11 and the “ΔLog(τ/KA) GαoB activation” value (D2LR [2]) was -0.84 ± 0.14. The “Emax Gao” value (D2LR [2]; 10 min) was 73 ±3.1, the “Emax Gao” value (D2LR [2]; 15 min) was 76 ± 2.2 and the “Emax Gao” value (D2LR [2]; 30 min) was 74 ± 3.0. For the same compound, the “Emax Gao” value (D2LR [2]; 45 min) was 72 ± 2.2, the “Emax Gao” value (D2LR [2]; 60 min) was 72 ± 2.3 and the “Emax Gao” value (D2LR [2]; 90 min) was 77 ± 2.6. For the same compound, the “change in potency over time in the GαoB activation assay” value (D2LR [2]; time points from 2 to 90 min) was “twofold”, the “Emax CI” value (D2LR [3]; 2 min) was 46 ± 3.7 and the “Emax CI” value (D2LR [3]; 5 min) was 46 ± 3.0. For the same compound, the “Log(τ/KA) Cellular impedance” value (D2LR [3]) was 7.34 ± 0.10, the “ΔLog(τ/KA) Cellular impedance” value (D2LR [3]) was -1.22 ± 0.11 and the “Emax CI” value (D2LR [3]; 10 min) was 36 ± 2.5. For the same compound, the “Emax CI” value (D2LR [3]; 15 min) was 32 ± 2.6, the “Emax CI” value (D2LR [3]; 30 min) was 26 ± 2.5 and the “Emax CI” value (D2LR [3]; 45 min) was 23 ± 2.5. For the same compound, the “Emax CI” value (D2LR [3]; 60 min) was 21 ± 2.5, the “Emax CI” value (D2LR [3]; 75 min) was 19 ± 2.4 and the “Emax CI” value (D2LR [3]; 90 min) was 17 ± 2.3. The “bias between the activation of Gαi1 and all other assays apart from the activation of GαoB” value (D2LR [4]; 5 min, reference dopamine) was “less than tenfold”, the “LogBias Gαi1 – CI” value (D2LR [4]; [5]) was 0.64 ± 0.19 and the “LogBias Gαi1 – GαoB” value (D2LR [4]; [5]) was 0.27 ± 0.21. For the same compound, the “LogBias Gαi1 – cAMP” value (D2LR [4]; [5]) was 0.83 ± 0.17, the “LogBias GαoB – CI” value (D2LR [4]; [5]) was 0.37 ± 0.18 and the “LogBias GαoB – cAMP” value (D2LR [4]; [5]) was 0.56 ± 0.16. For the same compound, the “LogBias cAMP – CI” value (D2LR [4]; [5]) was -0.19 ± 0.13.

With `O=c1[nH]c2cccc(N3CCN(Cc4cccc(-c5ccccc5)c4)CC3)c2o1` [Bifeprunox, bifeprunox] the “Log(τ/KA) pERK1/2” value (D2LR [1]; 5 minute timepoint, Flp-In-CHO-D2LR) was 7.32 ± 0.10, the “ΔLog(τ/KA) pERK1/2” value (D2LR [1]; [5]) was -1.24 ± 0.11 and the “alpahscreen assay” value (D2LR [1]; time 10 mins) was 15.6263 counts and 16.6076 counts and 20.0466 counts and 28.1436 counts. The “alpahscreen assay” value (D2LR [1]; time 15 mins) was 10.0482 counts and 8.477 counts and 14.6057 counts and 15.1817 counts, the EC50 (D2LR [2]; 2 min) was 52.5 nM and the Emax (D2LR [2]; 2 min) was 94 ± 3.8%. The EC50 (D2LR [2]; 5 min) was 26.9 nM, the Emax (D2LR [2]; 5 min) was 80% and the “Log(τ/KA) GαoB activation” value (D2LR [2]) was 7.50 ± 0.10. The “ΔLog(τ/KA) GαoB activation” value (D2LR [2]) was 0.26 ± 0.13, the EC50 (D2LR [2]; 10 min) was 12.9 nM and the Emax (D2LR [2]; 10 min) was 77%. For the same compound, the EC50 (D2LR [2]; 15 min) was 7.59 nM, the Emax (D2LR [2]; 15 min) was 79% and the EC50 (D2LR [2]; 30 min) was 4.07 nM. The Emax (D2LR [2]; 30 min) was 87 ± 2.5%, the EC50 (D2LR [2]; 45 min) was 3.02 nM and the Emax (D2LR [2]; 45 min) was 88 ± 2.4%. For the same compound, the EC50 (D2LR [2]; 60 min) was 3.24 nM, the EC50 (D2LR [2]; 75 min) was 2.19 nM and the EC50 (D2LR [2]; 90 min) was 2.14 nM. For the same compound, the Emax (D2LR [2]; 90 min) was 90 ± 3.2%, the EC50 (D2LR [3]; 2 min) was 16.2 nM and the Emax (D2LR [3]; 2 min) was 61 ± 4%. The EC50 (D2LR [3]; 5 min) was 3.47 nM, the Emax (D2LR [3]; 5 min) was 67 ± 3% and the “Log(τ/KA) Cellular impedance” value (D2LR [3]) was 8.30 ± 0.07. The “ΔLog(τ/KA) Cellular impedance” value (D2LR [3]) was -0.25 ± 0.08, the EC50 (D2LR [3]; 10 min) was 1.58 nM and the Emax (D2LR [3]; 10 min) was 57 ± 2.5%. The EC50 (D2LR [3]; 15 min) was 0.912 nM, the Emax (D2LR [3]; 15 min) was 58 ± 2.8% and the EC50 (D2LR [3]; 30 min) was 0.55 nM. It also gave an Emax (D2LR [3]; 30 min) of 53 ± 3.1%, an EC50 (D2LR [3]; 45 min) of 0.339 nM and an Emax (D2LR [3]; 45 min) of 51 ± 2.3%. The EC50 (D2LR [3]; 60 min) was 0.263 nM, the Emax (D2LR [3]; 60 min) was 49% and the EC50 (D2LR [3]; 75 min) was 0.229 nM. The Emax (D2LR [3]; 75 min) was 46%, the EC50 (D2LR [3]; 90 min) was 0.2 nM and the Emax (D2LR [3]; 90 min) was 44%. For the same compound, the “LogBias CI – pERK1/2” value (D2LR [4]; [5]) was 0.99 ± 0.14, the “LogBias Gαi1 – CI” value (D2LR [4]; [5]) was 1.68 ± 0.16 and the “LogBias Gαi1 – GαoB” value (D2LR [4]; [5]) was 1.17 ± 0.19. The “LogBias Gαi1 – cAMP” value (D2LR [4]; [5]) was 1.61 ± 0.16, the “LogBias Gαi1 – pERK1/2” value (D2LR [4]; [5]) was 2.67 ± 0.18 and the “LogBias GαoB – CI” value (D2LR [4]; [5]) was 0.51 ± 0.15. The “LogBias GαoB – cAMP” value (D2LR [4]; [5]) was 0.43 ± 0.14, the “LogBias GαoB – pERK1/2” value (D2LR [4]; [5]) was 1.50 ± 0.17 and the “LogBias cAMP – CI” value (D2LR [4]; [5]) was 0.08 ± 0.11. For the same compound, the “LogBias cAMP – pERK1/2” value (D2LR [4]; [5]) was 1.06 ± 0.13, the “LogBias β-arr2 – CI” value (D2LR [4]; [5]) was -0.33 ± 0.22 and the “LogBias β-arr2 – Gαi1” value (D2LR [4]; [5]) was -2.01 ± 0.25. The “LogBias β-arr2 – GαoB” value (D2LR [4]; [5]) was -0.84 ± 0.24, the “LogBias β-arr2 – cAMP” value (D2LR [4]; [5]) was -0.41 ± 0.22 and the “LogBias β-arr2 – pERK1/2” value (D2LR [4]; [5]) was 0.66 ± 0.24.
